According to patent US20110027185A1, “Methods of Screening for Anti-Angiogenic Compounds” (priority 2007, published 2011):

What was measured:
[1] = tested on: HUVEC; assay: HUVEC growth inhibition assay (NCI); assay type: cell-based, human; settings: Homo sapiens, 72 h, crystal violet
Description: Angiogenesis assays were provided by the NCI, details of the assay protocols are given below. In each assays TNP-470 and paclitaxel (Taxol®) were used as reference compounds. HUVEC (1.5×10^3) were plated in a 96-well plate in 100 μL of EBM-2 (Clonetic #CC3162). […] On day 0, one plate was stained with 0.5% crystal violet in 20% methanol for 10 minutes, rinsed with water, and air-dried. The remaining plates were incubated for 72 h at 37° C. After 72 h, plates were stained with 0.5% crystal violet in 20% methanol, rinsed with water and air-dried. The stain was eluted with 1:1 solution of ethanol:0.1 M sodium citrate (including day 0 plate), and absorbance was measured at 540 nm with an ELISA reader (Dynatech Laboratories). Day 0 absorbance was subtracted from the 72 h plates and data was plotted as percentage of control proliferation (vehicle treated cells).

[2] = tested on: HUVEC; assay: HUVEC cord formation assay on matrigel (NCI); assay type: cell-based, human; settings: Homo sapiens, 24 h
Description: Angiogenesis assays were provided by the NCI, details of the assay protocols are given below. In each assays TNP-470 and paclitaxel (Taxol®) were used as reference compounds. Matrigel (60 μL of 10 mg/mL; Collaborative Lab #35423) was placed in each well of an ice-cold 96-well plate. The plate was allowed to sit at room temperature for 15 minutes then it was incubated at 37° C. for 30 minutes to permit the matrigel to polymerize. In the mean time, HUVEC were prepared in EGM-2 (Clonetic #CC3162) at a concentration of 2×10^5 cells/mL. […] The cells (500 μL) and the drug at 2 times concentration (500 μL) were mixed and 200 μL of this suspension was placed in duplicate on the polymerized matrigel. After 24 h incubation, triplicate pictures were taken for each concentration using a Bioquant Image Analysis system. Drug effect (IC50) is assessed compared to untreated controls by measuring the length of cords formed and number of junctions.

[3] = tested on: HUVEC; assay: HUVEC cell migration (chemotaxis) assay, Boyden chamber (NCI); assay type: cell-based, human; settings: Homo sapiens, 5 h
Description: Angiogenesis assays were provided by the NCI, details of the assay protocols are given below. In each assays TNP-470 and paclitaxel (Taxol®) were used as reference compounds. Migration was assessed using the 48-well Boyden chamber and 8 μm pore size collagen-coated (10 μg/mL rat tail collagen; Collaborative Laboratories) polycarbonate filters (Osmonics, Inc.). The bottom chamber wells received 27-29 μL of DMEM medium alone (baseline) or medium containing chemo-attractant (bFGF, VEGF or Swiss 3T3 cell conditioned medium). The top chambers received 45 μL of HUVEC cell suspension (1×10^6 cells/mL) prepared in DMEM+1% BSA with or without test compound. After 5 h incubation at 37° C., the membrane was rinsed in PBS, fixed and stained in Diff-Quick solutions. The filter was placed on a glass slide with the migrated cells facing down and cells on top were removed using a Kimwipe. The testing was performed in 4-6 replicates and five fields were counted from each well. Negative, unstimulated, control values were subtracted from stimulated control and drug treated values and data was plotted as mean migrated cell±S.D. The IC50 was calculated from the plotted data.

[4] = tested on: VEGFxxx and VEGFxxxb expression in RPE cells; assay: VEGF isoform ELISA of media of treated RPE cells; assay type: cell-based; settings: 0.5 μM or 5 μM, 72 hours
Description: Media was sampled after 72 hours treatment, and assessed for total VEGF and VEGFxxxb expression (see Bates et al., 2002, Woolard et al., 2004 and Varey et al., 2008 for methods).

[5] = target: T1, FBP21 (Homo sapiens, UniProt O75554); assay: Phage display biopanning with biotinylated bait, Human Colon Tumour Library; assay type: binding; settings: SDS and E. coli elution
T1 construct: encode 99 amino acids in frame with the phage coat protein of which a segment of 83 residues share 100% homology with FBP21; purchased Novagen; host or cells: T7 phage amplified in E. coli BLT5403
T1 sequence (O75554 with tags, fused parts or gaps): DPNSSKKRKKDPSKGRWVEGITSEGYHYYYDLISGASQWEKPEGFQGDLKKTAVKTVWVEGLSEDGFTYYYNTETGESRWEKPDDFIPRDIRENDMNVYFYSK
Description: Streptavidin wells were incubated with 1 μM biotinylated probe at 4° C. overnight to prepare the wells for biopanning. After incubation, unbound biotinylated probe was removed from the well by washing with phosphate buffered saline (PBS). Wells were then blocked with blocking solution (3% skimmed milk in PBS) for at least one hour at room temperature. Blocked wells were then briefly washed with PBS and were ready for biopanning use. […] In the first round of biopanning, 0.15 mL of amplified phage library was added to an empty streptavidin coated well and incubated at room temperature for at least 1 hour. This step was included to deselect any phage displaying streptavidin binding proteins. After incubation, the phage were removed from the well and mixed with 50 μL 4× blocking solution (12% skimmed milk in PBS) and incubated at room temperature for at least one hour. 0.125 mL of blocked phage library was added to each pre-prepared biotinylated well and incubated at room temperature for at least one hour. […] After incubation, unbound phage were removed from the well with wash solution. The wash solution was varied depending on the round of biopanning. For first round of biopanning PBS1 was used. For subsequent rounds the stringency of the wash was increased by using sequentially PBS2, PBS3 and PBS4 (see Table I). […]

[6] = tested on: capillary tube formation; settings: rat aorta matrix culture model, cited from earlier work
[7] = tested on: human umbilical vein endothelial cells (HUVEC); settings: cited from earlier work
[8] = tested on: protein synthesis in the cultured rat cells; settings: cited from earlier work
[9] = tested on: WiDr cells induced angiogenesis; settings: 1.8 mg/kg intraperitoneal injection, mouse dorsal air sac model; cited from earlier work
[10] = tested on: B16-BL6 melanoma cells; settings: same dosage (1.8 mg/kg); cited from earlier work
[11] = tested on: WiDr cell lines of human colon cancer; settings: cited from earlier work
[12] = tested on: PC-3 cell lines of human prostate cancer; settings: cited from earlier work
[13] = tested on: Lewis lung adenocarcinoma; settings: Lewis lung adenocarcinoma model; cited from earlier work

## C[C@@H]1C[C@H](C)C[C@H](C)[C@@H](O)CC(=O)O[C@H]([C@@H]2CCC[C@H]2C(=O)O)C/C=C/C=C(/C#N)[C@H](O)[C@@H](C)C1 [Borrelidin]
[1]
  IC50: 3.25 nM
[2]
  IC50: 46.5 nM
[3]
  IC50: 63 nM
[4]
  VEGFxxx expression (ELISA): significant downregulation
  VEGFxxxb expression (ELISA): significant upregulation
[5]
  identification of FBP21 fragment by biopanning (binding): consistently identified an FBP21 fragment
[6]
  inhibition of capillary tube formation, IC50: 0.4 ng/mL
[6]; read-out: inhibition of capillary tube formation, IC50
  IC50: 0.8 nM
[7]; cell growth assay
  anti-proliferative activity towards HUVEC, IC50: 6 ng/mL
[7]; measured in the same medium
  HUVEC anti-proliferative IC50 weaker than anti-angiogenesis activity: 15 fold
[8]
  anti-angiogenesis IC50 lower than IC50 for inhibition of protein synthesis: 50 fold
[8]; cultured rat cells
  inhibition of protein synthesis, IC50: 20 ng/mL
[9]
  increment of vascular volume induced by WiDr cells: significantly reduce the increment of vascular volume
[10]
  formation of spontaneous lung metastases of B16-BL6 melanoma cells: effective for the inhibition of the formation of spontaneous lung metastases
[11]
  effect against WiDr cell lines: effective against WiDr cell lines
[12]
  effect against PC-3 cell lines: also against PC-3 cell lines
[13]
  propagation of metastatic nodules after removal of the primary tumour: weakly inhibited
